Assay results from patent US12708136B2, “Supported nicotine composition” (priority 2021, dated 2026).

Conditions: nicotine used in the experiments
Procedure: Mixtures were prepared of 10%, 20% and 50% by weight of nicotine on Florite® PS-200 grade and on Florite® R-grade.

Compound: CN1CCCC1c1cccnc1 (stereo not shown) [nicotine]
- starting level of impurity myosmine: 0.14%
